From patent US6713301B1, “Artificial T helper cell epitopes as immune stimulators for synthetic peptide immunogens” (United Biomedical, Inc., priority 1998, dated 2004) come the findings set out here.

The assay has as its system human IgE myeloma protein. Description: Human IgE ELISA of guinea pig immune sera. Further details: species or system guinea pigs. As to conditions: in vivo. Here is the method: These peptide immunogens were used to immunize groups of 3 guinea pigs using 100 μg/dose, formulated in CFA at week 0, IFA at weeks 3 and 6, and administered intramuscularly. For comparison, a group of two animals were immunized with a peptide/KLH carrier protein conjugate at 200 μg/dose, similarly administered. ELISA results of serum samples collected at week 8 are shown. In the ELISA a human IgE myeloma protein (American Biosystem, Inc. cat no. A113) was used as the solid-phase immunoadsorbant. The procedure used was identical to the peptide-based ELISAs described previously, except IgE myeloma was used as the solid phase immunoadsorbant. […] The inclusion of the Inv domain sequence (SEQ ID NO:78) augmented the immunogenicity, as shown by the enhanced immunogenicity of SEQ ID NO:99 over SEQ ID NO:98.
On the technique in general: An ELISA detects its analyte on a solid surface through an enzyme-linked reagent.

“98 (KKKIITITRIITIITTIDGGCGETYQSRVTHPHLPRALMRSTTKC) [compound 98]”: the “Log10 ELISA (average for animals of the group)” value was 2.35 Log10 and the No. responding is listed as 3/3.

B1: 99 (peptide)
chain: TAKSKKFPSYTATYQFGGKKKIITITRIITIITTIDGGCGETYQSRVTHPHLPRALMRSTTKC
Regarding B1, the “Log10 ELISA (average for animals of the group)” value was found to be 3.28 Log10 and the No. responding is on record as 3/3.
